Measurements: PMC12447755, “β-Lactamase cleavable antimicrobial peptide–drug conjugates” (Chemical Science, 2025)
Converted amounts (≈) assume the structure as drawn. Where two headings read alike, the source gives them in different places. Where a SMILES comes first, the peptide text is derived from it. Where no end group is shown, it is not given here.

Assays:
P. aeruginosa [1] = system: P. aeruginosa
[2] = system: Pseudomonas aeruginosa strain PAO1; test: Initial susceptibility testing at a fixed concentration; assay type: cell-based; parameters: key: Tick (✓) represents OD600 comparable to no-growth control; cross (✗) represents OD600 comparable to growth control without any peptide; details: 256 μg mL−1 of peptide, overnight incubation, OD600 compared with growth and no-growth controls
[3] = system: P. aeruginosa strain PA14; details: for MIC PA14: PA14, 16 h
[4] = system: P. aeruginosa strain PAO1; details: for MIC PAO1: PAO1, 16 h
P. aeruginosa [5] = test: Drug synergism assay; assay type: cell-based, Pseudomonas aeruginosa; details: P2a combined with ciprofloxacin, checkerboard in MH medium, 37 °C, 16 h; synergy threshold 0.5; strain not stated
Method: measured and 15 µL of thiazolyl blue tetrazolium bromide (MTT; 1 mg/mL stock solution in water; Acros) was added to each well of the plate. The MIC was defined as the lowest concentration of the compound with a colourless well indicating no bacterial growth and the results cross-checked with OD600 reading. Each sample was run in triplicate on the same plate. Polymyxin B or ciprofloxacin or both were used as positive controls to ensure comparability of results across different experiments.
Bacterial culture was quantified by measuring the OD600, medium exchanged to MH-medium and culture diluted to OD600 of 0.022 in MH-medium. Stock solution of compound A was diluted to twice the starting concentration in MH medium. […] The next day, OD600 of the microtiter plate was measured and 15 µL of thiazolyl blue tetrazolium bromide (MTT; 1 mg/mL stock solution in water) was added to each well of the plate to cross-check the OD600 readings. […]
150 µL of the solution was added to 96-well plate (3 wells per bacterium) as well as 150 µL of MH medium as a negative control (further 3 wells per bacterium). The media were inoculated with 4 µL of the diluted bacterial solution and incubated in a plate reader at 37◦C for 16 h and absorption at 482 nm (Abs482) and 600 nm (OD600) was continuously measured throughout the incubation. […]

[6] = system: Methicillin-resistant Staphylococcus aureus MRSA15; details: Table 4; broth microdilution in MH medium, 37 °C, 16 h
[7] = system: Serratia marcescens ATCC39006; details: ATCC39006, 16 h
Escherichia coli DH5a = details: 16 h
[8] = system: PAO1 strain containing plasmid pUCP20, which encodes a β-lactamase; test: MIC determination using broth microdilution method; assay type: cell-based, Pseudomonas aeruginosa
[9] = system: Enterococcus faecalis ATCC29212; details: ATCC29212, 16 h
[10] = system: Klebsiella pneumoniae CK1; details: CK1, 16 h
[11] = human serum 100 µL in 400 µL MES buffer (pH 6, 50 mM), 37 °C, protein precipitated with 1:1 DMSO:ethanol, HPLC at 220 nm, caffeine standard; Fig. 5b, values not given
[12] = Background stability in PBS buffer; assay type: physicochemical; details: PBS buffer pH 7.4 (50 mM), 37 °C, HPLC at 280 nm, Fig. 5a; values not given

Compound: C[C@@H]1NC(=O)[C@H](Cc2c[nH]c3ccccc23)NC(=O)[C@H](CCCCN)NC(=O)[C@@H](NC(=O)[C@@H](N)Cc2ccccc2)CSCCc2cc(nc(NCCCc3ccccc3)n2)CCSC[C@@H](C(=O)N[C@@H](CCCCN)C(=O)N[C@@H](CCCCN)C(N)=O)NC(=O)[C@H](Cc2c[nH]c3ccccc23)NC(=O)[C@H](CCCCN)NC(=O)[C@H](Cc2ccccc2)NC1=O [P2-1] (HELM PEPTIDE1{F.C.K.W.A.F.K.W.C.K.K.[am]}|CHEM1{[c1ccc(CCCNc2nc(CC[*:1])cc(CC[*:2])n2)cc1]}$PEPTIDE1,CHEM1,2:R3-1:R1|PEPTIDE1,CHEM1,9:R3-1:R2$$$V2.0)
- MIC of peptide-staple combinations (heat map) (P. aeruginosa [1]): best activity
- MIC (P. aeruginosa [1]; 18 h): 8 to 16 µg/mL
- Inh (inhibition) [2]: ✓
- MIC PA14 [3]: 16 µg/mL (≈ 9.2 µM)
- MIC PAO1 [4]: 16 µg/mL (≈ 9.2 µM)

Compound: FAKWAFKWLKK-NH2 [P2a, reference compound]
- fractional inhibitory concentration index (P. aeruginosa [5]): 0.75
- Inh (inhibition) [2]: ✗
- MIC [6]: 32 µg/mL
- MIC [7]: ≥ 64 µg/mL
- MIC (Escherichia coli DH5a): 4 µg/mL
- MIC PA14 [3]: 64 µg/mL
- PA14 MIC ([3]; Table S3, initial MIC values): 32 µg/mL
- PA14 MIC ([3]; Table S4): 22 µM
- cell growth inhibition in strain with plasmid versus without ([8]; OD600 growth curve, triplicate, Fig. 4b): no difference in cell growth inhibition
- PAO1 MIC ([4]; PAO1, 18 h): 11 µM
- PAO1 MIC ([4]; Table S4, cephalosporin-based staple 8 at different positions): 16 µg/mL
- MIC [9]: ≥ 64 µg/mL

Compound: CC[C@H](C)[C@H](NC(=O)[C@H](CCCCN)NC(=O)[C@H](CCCCN)NC(=O)[C@H](CS)NC(=O)[C@H](CCCNC(=N)N)NC(=O)[C@H](CCCCN)NC(=O)[C@H](CCCNC(=N)N)NC(=O)[C@H](Cc1c[nH]c2ccccc12)NC(=O)[C@H](CCCCN)NC(=O)[C@H](CCCCN)NC(=O)[C@H](CS)NC(=O)[C@H](CC(C)C)NC(=O)[C@H](CCCNC(=N)N)NC(=O)[C@H](CCCNC(=N)N)NC(=O)[C@H](Cc1ccccc1)NC(=O)[C@@H](N)CCCNC(=N)N)C(N)=O [P4] (H-RFRRLCKKWRKRCKKI-NH2)
- Inh (inhibition) [2]: ✗

Compound: CC(C)C[C@H](NC(=O)[C@H](Cc1c[nH]cn1)NC(=O)[C@H](CCCCN)NC(=O)[C@H](CS)NC(=O)[C@H](Cc1ccc(O)cc1)NC(=O)[C@H](CC(N)=O)NC(=O)[C@H](CCC(N)=O)NC(=O)[C@@H](NC(=O)[C@H](Cc1c[nH]c2ccccc12)NC(=O)[C@@H](N)CCCCN)C(C)C)C(=O)NCC(=O)N[C@@H](CCCNC(=N)N)C(=O)N[C@@H](CCCCN)C(=O)N[C@@H](CS)C(=O)N[C@@H](Cc1c[nH]cn1)C(=O)N[C@H](C(=O)N[C@@H](CC(C)C)C(=O)N[C@@H](CCCCN)C(=O)N[C@H](C(N)=O)[C@@H](C)O)[C@@H](C)O [P6] (H-KWVQNYCKHLGRKCHTLKT-NH2)
- Inh (inhibition) [2]: ✗

Compound: RFRRLRKKWRKRLKKI-NH2 [P4a, reference compound]
- Inh (inhibition) [2]: ✓

Compound: C[C@@H]1NC(=O)[C@H](Cc2c[nH]c3ccccc23)NC(=O)[C@H](CCCCN)NC(=O)[C@@H](NC(=O)[C@@H](N)Cc2ccccc2)CSCCc2cc(nc(NCCCC(=O)N[C@@H]3C(=O)N4C(C(=O)O)C(COC(=O)N5CCN(c6cc7c(cc6F)c(=O)c(C(=O)O)cn7C6CC6)CC5)=CS[C@H]34)n2)CCSC[C@@H](C(=O)N[C@@H](CCCCN)C(=O)N[C@@H](CCCCN)C(N)=O)NC(=O)[C@H](Cc2c[nH]c3ccccc23)NC(=O)[C@H](CCCCN)NC(=O)[C@H](Cc2ccccc2)NC1=O (stereo partly drawn) [P2-10]
- MIC [10]: ≥ 64 µg/mL
- serum stability [11]: improved stability over unstapled P2a
- MIC [7]: 16 µg/mL (≈ 7.03 µM)
- MIC (Escherichia coli DH5a): 1 µg/mL (≈ 0.439 µM)
- MIC for PA14 ([3]; PA14, 18 h): 7.0 µM
- PA14 MIC ([3]; Table S3, initial MIC values): 16 µg/mL
- reduction in MIC in PAO1 with plasmid pUCP20 versus PAO1 ([8]; Fig. 4 and Table 3): one half
- MIC for PAO1 ([4]; PAO1, 18 h): 7.0 µM
- PAO1 MIC ([4]; Table S3, initial MIC values): 16 µg/mL
- MIC for PAO1 after adding β-lactamase ([4]; medium supplemented with 1 nM recombinant β-lactamase): 2 µg/mL
- background hydrolysis rate mediated by buffer only [12]: significantly lower than when β-lactamase was present
- MIC [9]: 16 µg/mL (≈ 7.03 µM)

Compound: CC(=O)N[C@@H](Cc1c[nH]c2ccccc12)C(=O)N[C@H]1CSCCc2cc(nc(NCCCc3ccccc3)n2)CCSC[C@@H](C(=O)N[C@@H](Cc2ccccc2)C(N)=O)NC(=O)CNC(=O)[C@H](CCCNC(=N)N)NC(=O)[C@H](Cc2ccccc2)NC(=O)[C@H](CCCCN)NC(=O)[C@H](CCCCN)NC(=O)[C@H](CC(C)C)NC1=O [P3-1] (HELM PEPTIDE1{[ac].W.C.L.K.K.F.R.G.C.F.[am]}|CHEM1{[c1ccc(CCCNc2nc(CC[*:1])cc(CC[*:2])n2)cc1]}$PEPTIDE1,CHEM1,3:R3-1:R1|PEPTIDE1,CHEM1,10:R3-1:R2$$$V2.0)
- Inh (inhibition) [2]: ✗

Compound: KWVQNYMKHLGRKAHTLKT-NH2 [P6a, reference compound]
- Inh (inhibition) [2]: ✓

Compound: C[C@H](NC(=O)[C@H](Cc1c[nH]c2ccccc12)NC(=O)[C@H](CCCCN)NC(=O)[C@H](CS)NC(=O)[C@@H](N)Cc1ccccc1)C(=O)N[C@@H](Cc1ccccc1)C(=O)N[C@@H](CCCCN)C(=O)N[C@@H](Cc1c[nH]c2ccccc12)C(=O)N[C@@H](CS)C(=O)N[C@@H](CCCCN)C(=O)N[C@@H](CCCCN)C(N)=O [P2] (H-FCKWAFKWCKK-NH2)
- Inh (inhibition) [2]: ✗
- MIC PA14 [3]: 32 µg/mL (≈ 21.7 µM)
- MIC PAO1 [4]: 32 µg/mL (≈ 21.7 µM)

Compound: CC(C)C[C@@H]1NC(=O)[C@H](CCCNC(=N)N)NC(=O)[C@H](Cc2c[nH]cn2)NC(=O)[C@@H](NC(=O)[C@H](CC(C)C)NC(=O)[C@H](CCCCN)NC(=O)[C@H](CCCNC(=N)N)NC(=O)[C@H](Cc2ccccc2)NC(=O)[C@H](CC(C)C)NC(=O)[C@@H](N)CC(N)=O)CSCCc2cc(nc(NCCCc3ccccc3)n2)CCSC[C@@H](C(=O)N[C@@H](Cc2ccccc2)C(=O)NCC(=O)N[C@@H](Cc2ccc(O)cc2)C(=O)N[C@H](C(=O)N[C@@H](CC(C)C)C(=O)N[C@@H](CCCNC(=N)N)C(N)=O)[C@@H](C)O)NC(=O)[C@H](CCCNC(=N)N)NC(=O)[C@H](CCCNC(=N)N)NC(=O)[C@H](Cc2ccccc2)NC1=O [P7-1] (HELM PEPTIDE1{N.L.F.R.K.L.C.H.R.L.F.R.R.C.F.G.Y.T.L.R.[am]}|CHEM1{[c1ccc(CCCNc2nc(CC[*:1])cc(CC[*:2])n2)cc1]}$PEPTIDE1,CHEM1,7:R3-1:R1|PEPTIDE1,CHEM1,14:R3-1:R2$$$V2.0)
- Inh (inhibition) [2]: ✗

Compound: CC[C@H](C)[C@H](NC(=O)[C@H](CCCCN)NC(=O)[C@H](CCCCN)NC(=O)[C@@H]1CSCCc2cc(nc(NCCCc3ccccc3)n2)CCSC[C@H](NC(=O)[C@H](CC(C)C)NC(=O)[C@H](CCCNC(=N)N)NC(=O)[C@H](CCCNC(=N)N)NC(=O)[C@H](Cc2ccccc2)NC(=O)[C@@H](N)CCCNC(=N)N)C(=O)N[C@@H](CCCCN)C(=O)N[C@@H](CCCCN)C(=O)N[C@@H](Cc2c[nH]c3ccccc23)C(=O)N[C@@H](CCCNC(=N)N)C(=O)N[C@@H](CCCCN)C(=O)N[C@@H](CCCNC(=N)N)C(=O)N1)C(N)=O [P4-1] (HELM PEPTIDE1{R.F.R.R.L.C.K.K.W.R.K.R.C.K.K.I.[am]}|CHEM1{[c1ccc(CCCNc2nc(CC[*:1])cc(CC[*:2])n2)cc1]}$PEPTIDE1,CHEM1,6:R3-1:R1|PEPTIDE1,CHEM1,13:R3-1:R2$$$V2.0)
- Inh (inhibition) [2]: ✓
